Test results from publication PMC2920140 (Inorganic chemistry, 2010).

Target: T1, CLOCK PAS–A (murine CLOCK PAS-A domain, mCLOCK) (Mus musculus, UniProt O08785)
T1 sequence (O08785 103-265): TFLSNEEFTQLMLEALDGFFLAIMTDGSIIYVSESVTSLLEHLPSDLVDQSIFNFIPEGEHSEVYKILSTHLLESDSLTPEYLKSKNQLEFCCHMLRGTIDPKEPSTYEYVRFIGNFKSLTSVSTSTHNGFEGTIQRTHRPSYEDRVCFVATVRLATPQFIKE
Experiment: UV-visible spectrophotometric titration, global nonlinear least squares fit
Type: binding

C=CC1=C(C)C2=Cc3c(C=C)c(C)c4[n]3[Fe]([Cl])[n]3c(c(C)c(CCC(=O)O)c3=CC3=NC(=C4)C(C)=C3CCC(=O)O)=CC1=N2 [hemin]
Kd: 1050 nM
